Assay results reported in PMC10975527 (Viruses, 2024).
Converted amounts (≈) assume the structure as drawn. Where two headings read alike, the source gives them in different places.

Key:
recombinant human PAPD7 = biological target: T1, recombinant human PAPD7 (Homo sapiens, UniProt Q5XG87); assay: PAPD7 ATP depletion assay; format: biochemical; conditions: 12.5 nM enzyme, 750 nM ATP, 3 h, mean of 3 experiments; read-out: IC50, PAPD7-mediated incorporation of ATP
T1 construct: made in house

[1] = test system: HBsAg with SLα deletion mutant (ΔSLα) PRE; assay: HBV PRE variant phenotyping in Huh-7: ΔSLα plasmid (HBsAg); format: cell-based; conditions: Hepatitis B virus, Huh-7, 120 h, read-out: HBsAg EC50
HBV pgRNA and preS/S RNA = assay: Northern blot of intracellular HBV RNA in HepG2.2.15 cells; format: cell-based; conditions: Hepatitis B virus, HepG2.2.15, 48 h
in vitro [2] = format: in vitro ADME; conditions: human
in vitro [3] = format: in vitro ADME; conditions: mouse
in vitro [4] = format: in vitro ADME; conditions: rat, plasma
in vitro [5] = format: in vitro ADME; conditions: monkey, plasma
HBV = assay: Effective concentration mediating 90% inhibition (EC90), system not given; format: cell-based; conditions: Hepatitis B virus; used for comparison with unbound concentrations; cell system not stated
Beagle dogs = assay: 13-week repeat-dose toxicity study in dogs; format: in vivo; parameters: key to Testis: Degeneration/Atrophy, Minimal, incidence / Testis: Degeneration/Atrophy, Mild, incidence / Testis: Degeneration/Atrophy, Moderate, incidence / Epididymis: Cellular debris, Minimal, incidence / Epididymis: Cellular debris, Mild, incidence / Epididymis: Cellularity, decreased; sperm, Minimal, incidence / Epididymis: Cellularity, decreased; sperm, Mild, incidence / Epididymis: Cellularity, decreased; sperm, Marked, incidence: - = no AB-161-related findings
[6] = test system: panel of RNA and DNA viruses; assay: Antiviral selectivity against a panel of RNA and DNA viruses (summary); format: cell-based
DENV2 = assay: Antiviral selectivity panel: DENV2; format: cell-based, dengue virus type 2; conditions: Dengue virus, DENV2, BHK-21, in Mesocricetus auratus; BHK21 (hamster kidney)
IAV = assay: microbe, parasite or virus in culture; format: cell-based; conditions: Influenza A virus, MDBK, in Bos taurus, read-out: EC50 (IAV)
HRV = assay: Antiviral selectivity panel: HRV; format: cell-based; conditions: Human rhinovirus sp., HEp-2; HEp2 (human epithelial)
HIV = assay: Antiviral selectivity panel: HIV; format: cell-based; conditions: Human immunodeficiency virus 1; CEM-22 (human T lymphoblast)
[7] = male, C57BL/6J, mouse, in vivo, 24 h
Wild-type HBV = assay: HBV polymerase variant phenotyping in Huh-7: wild-type; conditions: Hepatitis B virus
[8] = male dogs, 10 mg/kg/day, end of main study (days 97–100)
[9] = male dogs, 10 mg/kg/day, end of main study, 4 examined
[10] = male dogs, 30 mg/kg/day, end of main study (days 97–100)
[11] = male dogs, 30 mg/kg/day, end of main study, 3 examined
[12] = male dogs, 100 mg/kg/day, end of main study (days 97–100)
[13] = male dogs, 100 mg/kg/day, end of main study, 4 examined
[14] = male dogs, 100 mg/kg/day, end of recovery (Day 120)
[15] = male dogs, 100 mg/kg/day, end of recovery (Day 120), 2 examined

T1 sequence (Q5XG87 226-558): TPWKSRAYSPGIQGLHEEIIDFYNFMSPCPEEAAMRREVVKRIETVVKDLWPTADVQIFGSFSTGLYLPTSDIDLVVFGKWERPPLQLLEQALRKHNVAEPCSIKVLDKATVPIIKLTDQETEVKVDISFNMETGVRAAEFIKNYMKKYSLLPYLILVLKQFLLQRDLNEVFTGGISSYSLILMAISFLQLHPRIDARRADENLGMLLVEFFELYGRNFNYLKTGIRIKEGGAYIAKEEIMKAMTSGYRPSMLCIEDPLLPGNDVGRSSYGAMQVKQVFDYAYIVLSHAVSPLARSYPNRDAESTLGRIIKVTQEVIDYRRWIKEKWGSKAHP

COc1cc(OC(F)F)c2nc3c(n2c1)C[C@@H](C(C)(C)C)c1cc(C(=O)O)c(=O)[nH]c1-3 [AB-161]
IC50 (recombinant human PAPD7): 1.1 µM
EC50 [1]: > 0.1 µM
EC50 (HBV pgRNA and preS/S RNA; read-out: EC50, steady state level of pgRNA (3.5 kb)): 0.0069 to 0.021 µM
EC50 (HBV pgRNA and preS/S RNA; read-out: EC50, steady state level of preS/S RNA (2.4/2.1 kb)): 0.0023 to 0.0069 µM
plasma protein binding, bound (in vitro [2]; 6 h, 500 ng/mL): 95%
fraction unbound at 6 h, 500 ng/mL (in vitro [2]; plasma, plasma protein binding, bound): 0.049
AB-161 estimated to be free (in vitro [3]; 6 h, 500 ng/mL): 2.4%
fraction unbound at 6 h, 500 ng/mL (in vitro [3]; plasma): 0.024
fraction-unbound factor (in vitro [3]; plasma, 6 h, 500 ng/mL): 0.024
fraction unbound at 6 h, 500 ng/mL (in vitro [4]): 0.056
fraction unbound at 6 h, 500 ng/mL (in vitro [5]): 0.02
EC90 (HBV): 0.0128 µg/mL (≈ 0.0295 µM)
motor nerve conduction (Beagle dogs; dogs): No differences from baseline or time-matched controls
animals with persisting peroneal sensory NCV delays (Beagle dogs; dogs, 100 mg/kg/day recovery cohort, day 119): 2 of 4
animals with peroneal sensory NCV delays (Beagle dogs; dogs, 100 mg/kg/day, days 71 to 72): 4 of 12
food consumption, electrocardiography, neurological examinations, urinalysis (Beagle dogs; dogs, 10, 30, or 100 mg/kg/day): no AB-161-related effects
reproductive safety findings (Beagle dogs; female dogs, 13-week administration, all doses): no reproductive safety findings
Testis: Degeneration/Atrophy, incidence (Beagle dogs; male dogs, 10 mg/kg/day, end of main study (day 97–100), 4 examined): 0
Testis weight, % of body weight (Beagle dogs; [8]): −9.38 percent difference from the control group means
Testis weight, % of brain weight (Beagle dogs; [8]): −16.13 percent difference from the control group means
Testis weight, absolute value (Beagle dogs; [8]): −18.03 percent difference from the control group means
Epididymis: Cellular debris, Mild, incidence (Beagle dogs; [9]): -
Epididymis: Cellular debris, Minimal, incidence (Beagle dogs; [9]): -
Epididymis: Cellular debris, incidence (Beagle dogs; [9]): 0
Epididymis: Cellularity, decreased; sperm, Marked, incidence (Beagle dogs; [9]): -
Epididymis: Cellularity, decreased; sperm, Mild, incidence (Beagle dogs; [9]): -
Epididymis: Cellularity, decreased; sperm, Minimal, incidence (Beagle dogs; [9]): -
Epididymis: Cellularity, decreased; sperm, incidence (Beagle dogs; [9]): 0
Testis: Degeneration/Atrophy, Mild, incidence (Beagle dogs; [9]): -
Testis: Degeneration/Atrophy, Minimal, incidence (Beagle dogs; [9]): -
Testis: Degeneration/Atrophy, Moderate, incidence (Beagle dogs; [9]): -
Testis weight, % of body weight (Beagle dogs; [10]): −21.93 percent difference from the control group means
Testis weight, % of brain weight (Beagle dogs; [10]): −30.73 percent difference from the control group means
Testis weight, absolute value (Beagle dogs; [10]): −34.17 percent difference from the control group means
Epididymis: Cellular debris, Mild, incidence (Beagle dogs; [11]): 2
Epididymis: Cellular debris, Minimal, incidence (Beagle dogs; [11]): 0
Epididymis: Cellular debris, incidence (Beagle dogs; [11]): 2
Epididymis: Cellularity, decreased; sperm, Marked, incidence (Beagle dogs; [11]): 0
Epididymis: Cellularity, decreased; sperm, Mild, incidence (Beagle dogs; [11]): 2
Epididymis: Cellularity, decreased; sperm, Minimal, incidence (Beagle dogs; [11]): 0
Epididymis: Cellularity, decreased; sperm, incidence (Beagle dogs; [11]): 2
Testis: Degeneration/Atrophy, Mild, incidence (Beagle dogs; [11]): 1
Testis: Degeneration/Atrophy, Minimal, incidence (Beagle dogs; [11]): 1
Testis: Degeneration/Atrophy, Moderate, incidence (Beagle dogs; [11]): 0
Testis: Degeneration/Atrophy, incidence (Beagle dogs; [11]): 2
Testis weight, % of body weight (Beagle dogs; [12]): −12.18 percent difference from the control group means
Testis weight, % of brain weight (Beagle dogs; [12]): −16.10 percent difference from the control group means
Testis weight, absolute value (Beagle dogs; [12]): −20.62 percent difference from the control group means
Epididymis: Cellular debris, Mild, incidence (Beagle dogs; [13]): 2
Epididymis: Cellular debris, Minimal, incidence (Beagle dogs; [13]): 2
Epididymis: Cellular debris, incidence (Beagle dogs; [13]): 4
Epididymis: Cellularity, decreased; sperm, Marked, incidence (Beagle dogs; [13]): 1
Epididymis: Cellularity, decreased; sperm, Mild, incidence (Beagle dogs; [13]): 2
Epididymis: Cellularity, decreased; sperm, Minimal, incidence (Beagle dogs; [13]): 1
Epididymis: Cellularity, decreased; sperm, incidence (Beagle dogs; [13]): 4
Testis: Degeneration/Atrophy, Mild, incidence (Beagle dogs; [13]): 1
Testis: Degeneration/Atrophy, Minimal, incidence (Beagle dogs; [13]): 2
Testis: Degeneration/Atrophy, Moderate, incidence (Beagle dogs; [13]): 1
Testis: Degeneration/Atrophy, incidence (Beagle dogs; [13]): 4
Testis weight, % of body weight (Beagle dogs; [14]): −37.79 percent difference from the control group means
Testis weight, % of brain weight (Beagle dogs; [14]): −43.49 percent difference from the control group means
Testis weight, absolute value (Beagle dogs; [14]): −42.84 percent difference from the control group means
Epididymis: Cellular debris, Mild, incidence (Beagle dogs; [15]): (2) 2 2 2 2
Epididymis: Cellular debris, incidence (Beagle dogs; [15]): (2) 2 2 2 2
Epididymis: Cellularity, decreased; sperm, Moderate, incidence (Beagle dogs; [15]): (2) 2 2 2 2
Epididymis: Cellularity, decreased; sperm, incidence (Beagle dogs; [15]): (2) 2 2 2 2
Testis: Degeneration/Atrophy, Moderate, incidence (Beagle dogs; [15]): (2) 2 2
Testis: Degeneration/Atrophy, incidence (Beagle dogs; [15]): (2) 2 2
testis microscopic finding (Beagle dogs; male dogs, 30 and 100 mg/kg/day at terminal euthanasia, persisted at end of recovery at 100 mg/kg/day): degeneration/atrophy in the testis was noted
selectivity for HBV ([6]; HBV vs panel of RNA and DNA viruses): > 10,000 fold
activity against a panel of RNA and DNA viruses ([6]; all ten viruses, up to the highest concentration tested at 30 μM): inactive
EC50 (DENV2): > 30 µM
EC50 (IAV): > 30 µM
EC50 (HRV): > 30 µM
EC50 (HIV): > 30 µM
CC50 (Huh-7 cells; HBV transfected Huh-7, genotypes A–H): > 50 µM
CC50 (Huh-7 cells; Huh-7, HBV genotype A): > 50 µM
CC50 (Huh-7 cells; Huh-7, HBV genotype C): > 50 µM
CC50 (Huh-7 cells; Huh-7, HBV genotype D): > 50 µM
CC50 (Huh-7 cells; Huh-7, HBV genotype E): > 50 µM
CC50 (Huh-7 cells; Huh-7, HBV genotype F): > 50 µM
CC50 (Huh-7 cells; Huh-7, HBV genotype H-1): > 50 µM
CC50 (Huh-7 cells; Huh-7, HBV genotype H-2): > 50 µM
fraction unbound AB-161 in plasma (C24h) below its EC90 [7]: at least 1 log10
CC50 (MRC-5 (human lung)): > 30 µM
CC50 (HEp2 (human epithelial)): > 30 µM
EC50 (Wild-type HBV; Huh-7, read-out: EC50 (HBsAg)): 0.0019 to 0.0049 µM
EC50 (Wild-type HBV; Huh-7, read-out: HBsAg, EC50): 0.0049 µM
